How the values were obtained:
[1] = test system: normal lung cells CCD19; assay: MTT cell viability assay, normal lung cells CCD19; type: cell-based; settings: 72 h treatment
Protocol: (§1) H2228 and CCD19(Lu) cells were obtained from the American Type Culture Collection and cultured in an environment of 5% CO2 at 37° C. in RPMI-1640 mediums supplemented with 10% fetal bovine serum (FBS), 100 units/mL penicillin, and 100 μg/mL streptomycin.
(§2) Cell viability was determined by MTT assay. H2228 and CCD19 cells (3×10^3 cells/well) were seeded into a 96-well plate and treated with indicated concentrations of the compound of Formula (V) for 72 h. At the end of incubation, 10 μl MTT (0.5 mg/ml) (Sigma) was added to each well. After incubating for 4 h at 37° C., supernatants were removed and 150 μl of DMSO was added. The formazan crystals formed inside the viable cells were solubilized in DMSO and the OD was read with Microplate Reader (Epoch, Winooski, USA) at 570 nm. The IC50 value for the compound was determined by GraphPad Prim5.0 software. The experiments were performed three times with three replicates in each.

[2] = test system: H2228 cells; assay: MTT cell viability assay, H2228 cells; type: cell-based; settings: Homo sapiens, NCI-H2228, 72 h treatment
Protocol: as §1, §2

[3] = molecular target: recombinant ALK kinase domain (Homo sapiens, UniProt Q9UM73); assay: LanthaScreen Eu Kinase Binding Assay, recombinant ALK kinase domain; settings: room temperature, 1 h
Chain of recombinant ALK kinase domain (Q9UM73 1116-1392 limits assumed): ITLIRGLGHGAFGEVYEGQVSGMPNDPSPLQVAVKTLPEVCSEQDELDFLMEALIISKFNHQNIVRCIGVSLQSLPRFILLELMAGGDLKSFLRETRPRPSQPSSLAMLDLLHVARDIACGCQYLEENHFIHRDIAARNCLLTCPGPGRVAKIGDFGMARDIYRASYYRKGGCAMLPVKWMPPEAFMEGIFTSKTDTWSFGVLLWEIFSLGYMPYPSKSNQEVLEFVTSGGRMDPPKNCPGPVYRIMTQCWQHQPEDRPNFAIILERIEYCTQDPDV
Protocol: Enzymatic assay for recombinant ALK kinase domain was conducted using the LanthaScreen® Eu Kinase Binding Assays. LanthaScreen® Eu Kinase Binding Assays are based on the binding and displacement of a proprietary. The assay was performed at room temperature for 1 h in a total volume of 15 μL, including 5 μL of test compound, 5 μL of kinase/antibody mixture and 5 μL of tracer. After 1 h incubation, fluorescence was measured. The division of acceptor/tracer emission (665 nm) by the antibody/donor emission (615 nm) was used to calculate the emission ratio.

Compound: Cc1sc2nc3c4ccccc4c(NCCCN(C)C)nn3c(=O)c2c1C [Formula (V)]
- IC50 [1]: 16.8 ± 2.04 µM
- IC50 [2]: 4.11 ± 0.96 µM
- EC50 [3]: 0.0196 µM
